Test results published in patent publication US9820990B2, “Methods of treating disorders associated with protein aggregation” (University of Pittsburgh—Of the Commonwealth System of …, priority 2009, dated 2017).
Entries after “also recorded” stand apart in the source; their conditions may differ. Counter-ions that a name gives are not always drawn. Like-named read-outs stand apart in the source and are kept apart here.

Key:
ATZ = conditions: mouse model of AT deficiency; cited from earlier work
sGFP::ATZ [1] = experiment: LOPAC library high-content primary screen for sGFP::ATZ accumulation in transgenic animals; format: in vivo, C. elegans; conditions: for Rank-score: 24 h
sGFP::ATZ [2] = experiment: Hit compound characterization: dose-response in the sGFP::ATZ HCS assay; format: in vivo, C. elegans; design: key to dose-dependent response: c: Compound demonstrated a dose-dependent response.; Compound failed to demonstrate a dose-dependent response; conditions: for degradation of aggregated ATZ protein: Caenorhabditis elegans model system; for GFP+ inclusions in ATZ worms: at 10 μM; for effect on sGFP::ATZ accumulation: dose-response, 0-100 μM; for dose-dependent response: retest at 0-100 μM, 24 or 48 hours
Method: Imaging of animals using the ArrayScan VTI: Prior to imaging, worms were anesthetized by adding 30 μl of 0.02 M NaN3 in PBS to each well. Plates were resealed, inverted twice, and incubated for 5 minutes at room temperature. Images were acquired with the ArrayScan VTI HCS Reader fitted with a 2.5× objective and a 0.63× coupler using a 2-channel (TRITC and GFP) assay. Real-time analysis was performed using the SpotDetector BioApplication optimized to quantify fluorescent protein expression in C. elegans. Image acquisition and analysis of a 384-well plate was completed in <45 minutes. The total number of animals in the well was determined by counting the number of red heads (Pmyo-2mRFP) in the TRITC channel. Total spot area or total spot intensity was determined by quantifying the GFP-positive spots in the GFP channel. Total spot area or total spot intensity per animal was determined by dividing the values from the GFP channel by that from the TRITC channel.
Hit compound characterization: Compounds that were identified as potential hits were purchased (if available) and retested for verification. […] Compounds that produced a response in a dose-dependent manner were further tested for a time-dependent response. Compound dose-response curves were performed by dispensing 15 μl of a 4× stock solution into 384-well plates containing 15 μl of assay medium (see above). Thirty-five animals were sorted into each well bringing the volume to ˜60 μl. The final compound concentrations in each well varied from 0-100 μM. Assay plates were incubated in a 22° C. incubator for 24 or 48 hours. Each compound was tested in quadruplicate in at least 2 independent experiments.
Statistical evaluation: Statistical evaluation of data was performed using Prism® (Graphpad Software). The significance of actual and predicted data in FIGS. 12, 14 and 15 was determined using a linear regression analysis and comparing the slope and goodness-of-fit (r2) values. Statistical significance of the spot count, spot area and spot intensity values between N2 (wild-type) and various transgenic lines in FIG. 13 and dose-response in FIG. 17 was determined using an unpaired, one-tailed, Student's t-test.
Compound screen: To test the HCS protocol, a pilot drug screen was performed using the library of pharmacologically active compounds (LOPAC1280™ 1280 compounds). Tight gating parameters for total fluorescence were used to sort 35 young adult Pnhx2sGFP::ATZ animals into wells of 384-well plates containing […] of a LOPAC compound and 0.5% DMSO. Pnhx2sGFP::ATZ animals incubated with 0.5% DMSO served as untreated controls and were placed in the first-two and last-two columns of each plate. In a representative experiment, plate 1 of the LOPAC library was set-up for screening on day 1, and 3 other plates were set-up on the next day. After 24 incubation at 25° C., animals were immobilized by the addition of NaAz and placed in the ArrayScan VTI for automated imaging. To examine for systematic errors, the raw data (total spot area/animal) were depicted as a plate-well scatter plot (FIG. 17A). […] This difference reflects a wider sort-window used to collect animals on day 1 in comparison to that used on day 2. As the average values of the negative controls and that of the sample wells were similar, we combined the control and samples wells for normalization and to identify potential hits using the z-score (FIG. 17B). The ArrayScan VTI reads microtiter plates by rows, alternating from left-to-right, and then right-to-left. For some assays, we noted that the control fluorescence values would drift upwards slightly in rows towards the bottom of the plate. This drift appeared to correlate with an increase in chamber temperature during the scanning period and was minimized by cooling the chamber with a fan or shortening the read times by using 2.5× objective with a 0.6 coupler. Nonetheless, intra-plate variation was controlled for by presenting the data as a B-score (FIG. 17C). […]

mCherry::LGG-1 = experiment: Induction of autophagy in transgenic animals expressing Pnhx-2mCherry::lgg-1; format: in vivo, C. elegans; conditions: compared with well-fed animals treated with DMSO (diffuse)
Text: FIG. 18A-E. Induction of autophagy by hit compounds. Images of transgenic animals expressing Pnhx-2mCherry:lgg-1 treated with various compounds are shown. Images were acquired using a Nikon instruments TiEclipse widefield light microscope fitted with a 20× Plan Apochromat objective. Images were then deconvolved using Volocity (Perkin Elmer, v 5.3.2). Deconvolved z planes were then merged to a single plane. Well-fed animals treated with DMSO (A) show a diffuse mCherry expression throughout the intestine. […] Starved (E) animals are included as a positive control for autophagy. Scale bar, 50 μm.
Macroautophagy is a cellular process in which a double membrane envelops cytosolic components or organelles (autophagosome) and delivers this material to a lysosome (autophagolysosome) for degradation and recycling (reviewed in 79). LGG-1/LC3/Atg8 is a diffuse cytosolic protein that participates in autophagosome formation and becomes inserted into the autophagosome membrane (80). Upon autophagosome formation, LGG-1 fused to mCherry changes its cytoplasmic distribution pattern from diffuse (lower fluorescence intensity) to punctate (higher fluorescence intensity) (80). To determine whether the imaging system could follow this process, a strain expressing a Pnhx-2mCherry::lgg-1 transgene was examined after starvation, a potent inducer of intestinal autophagosome formation (81). In well-fed animals, the diffuse cytoplasmic fluorescence in the intestinal cells was well above that of the N2 background (FIGS. 13K-13L, 13O-13Q). To detect mCherry::LGG-1 puncta, the diffuse fluorescence intensity of the well-fed animals was used to calibrate a threshold from which the SpotDetector BioApplication could detect any high-intensity spots. Although basal autophagy in the well-fed animals yielded a few spots (FIG. 13O), the large number of distinct puncta in the starved animals (FIGS. 13M, 13N, 13O-Q) indicated a marked increase in autophagy that was detected best by a statistically significant increase in spot count or total spot intensity per animal (FIGS. 13O and 13Q, respectively). […]

ATZ in HTO/Z cells = experiment: HTO/Z cells, Western blot analysis for AT; format: cell-based, human; conditions: for ATZ levels in the cell line: HTO/Z mammalian cell line model of AT deficiency
Method: The cells were incubated for 48 hrs with fluphenazine in several different concentrations and then subjected to Western blot analysis for AT. […] The effect is evident at doses of 1-10 μM. […] This is different from CBZ which appears to affect autophagic as well as proteasomal degradation.

C. elegans = conditions: 0-100 mM, 4 hours, SYTOX Green uptake
Method: Animals were washed 5 times with M9 media and stained with 2 μM SYTOX™ Green (Invitrogen) for 5 minutes at room temperature (84). Approximately 50 animals/well were dispensed into an optical bottom black walled 96 well plate (Nunc Thermo Fisher Scientific, Rochester, N.Y., USA). Wells were imaged using the ArrayScan VTI over the entire area of the well in brightfield, red (TRITC) and green (GFP) channels at 50× magnification. The total number of animals and the number of dead bodies were determined by counting red and green spots, respectively. Data from SpotDetector algorithm were confirmed by manual counting of the live and dead animals. Percent dead=(the number of green objects detected/total number of animals)×100.
To determine whether the system could discriminate dead from live intestinal cells, we scanned and analyzed young adult animals exposed to different concentrations of NaAz in the presence SYTOX® Green.

Row | SMILES | degradation of aggregated ATZ protein (sGFP::ATZ [2]) | GFP+ inclusions in ATZ worms (sGFP::ATZ [2]) | effect on sGFP::ATZ accumulation (sGFP::ATZ [2]) | dose-dependent response (sGFP::ATZ [2]) | mCherry::LGG-1 distribution pattern (autophagic activity) (mCherry::LGG-1) | ATZ levels in the cell line (ATZ in HTO/Z cells) | further results
1 | NC(=O)N1c2ccccc2C=Cc2ccccc21 [carbamazepine] |  |  |  |  |  |  | amount of ATZ accumulated in the liver (ATZ): decrease
2 | OCCN1CCN(CCCN2c3ccccc3Sc3ccc(C(F)(F)F)cc32)CC1 [fluphenazine dihydrochloride, 4-[3-[2-(Trifluoromethyl)phenothiazin-10-yl]propyl]-1-piperazineethanol] | able to promote degradation of aggregated ATZ protein | almost complete elimination of the inclusions | dose-dependent decrease in sGFP::ATZ accumulation; also recorded: dose-dependant decrease in sGFP::ATZ accumulation; also recorded: dose-dependent effect; also recorded: decreased | fluphenazine dihydrochloride^c | markedly punctate distribution pattern indicative of increased autophagic activity | effective in reducing ATZ levels | Overall rank-order (sGFP::ATZ [1]): 23; Rank-score (sGFP::ATZ [1]; 50 µM): 81.0; doses at which the decrease in insoluble ATZ is evident (ATZ in HTO/Z cells; HTO/Z cells, 48 hrs): 1 to 10 µM; levels of the control GAPDH (ATZ in HTO/Z cells; HTO/Z cells, 48 hrs): no significant change; soluble ATZ (ATZ in HTO/Z cells; HTO/Z cells, 48 hrs): increase; insoluble ATZ levels (ATZ in HTO/Z cells; HTO/Z cells, 48 hrs, several concentrations): dose-dependent decrease; ATZ levels in the cell line (ATZ in HTO/Z cells; listed as fluphenzine hydrochloride): decreased ATZ
3 | O=c1[nH]c2ccccc2n1C1CCN(CCCC(c2ccc(F)cc2)c2ccc(F)cc2)CC1 [pimozide, 1-[1-[4,4-bis(4-fluorophenyl)butyl]-4-piperidyl]-1,3-dihydrobenzoimidazol-2-one] | able to promote degradation of aggregated ATZ protein | almost complete elimination of the inclusions | dose-dependent decrease in sGFP::ATZ accumulation; also recorded: dose-dependant decrease in sGFP::ATZ accumulation; also recorded: dose-dependent effect; also recorded: decreased | pimozide^c | markedly punctate distribution pattern indicative of increased autophagic activity | effective in reducing ATZ levels; also recorded: decreased ATZ | Overall rank-order (sGFP::ATZ [1]; among compounds that decreased ATZ accumulation, based on relative rank-scores): 33; Rank-score (sGFP::ATZ [1]; average of compound rankings by ascending B-score from two independent screens, 50 μM, <110 decreased, >1225 increased sGFP::ATZ inclusions): 107.5
4 | [N-]=[N+]=[N-] [sodium azide] |  |  |  |  |  |  | number of dead animals (C. elegans): dose dependent increase
